Columns and labels:
human mPGES-1 = human mPGES-1 (Homo sapiens (Human), UniProt O14684); assay: mPGES-1 inhibitory activity test; format: biochemical; details: for IC50: microsomes of CHO-K1 cells expressing human mPGES-1, PGH2 1 μM, PGE2 by HTRF, read-out: mPGES-1 inhibition (IC50 nM); for inhibition at 0.01 µM: 10 nM test compound; for inhibition at 0.1 µM: 100 nM test compound
Method in brief: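 PGE2 formation was quantified by HTRF and reported as percent inhibition at 10 and 100 nM compound or as IC50. The 60-second reaction at 4° C used 1 μM PGH2, after a 20-minute 4° C preincubation of compound (1% DMSO final) with glutathione-supplemented (2.5 mM, pH 7.4) microsomes. The microsomes were from transiently transfected CHO-K1 cells expressing human mPGES-1.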

[1] = tested on: Female Hartley guinea pigs; assay: Suppression of urinary output in a guinea pig model of water-loaded polyuria; format: in vivo; details: oral, total urinary output up to 3 hours after water load, relative to vehicle group
Method: The water-loaded polyuria model, commonly used as a model for polyuria, was used to evaluate the inhibitory effect of the test compounds on urinary output in the following manner. Female Hartley guinea pigs (Japan SLC Co., Ltd.) were acclimated in a metabolic cage (Natsume Seisakusho Co., Ltd.) in a fasted condition from the evening of one day before the test. On the following day, 20 mL/kg of distilled water was administered orally as a water load, and then the guinea pigs were placed back in the metabolic cage and the total urinary output up to 3 hours after the water load was downloaded into a personal computer via an electronic balance (GX-200, A&D Corporation) and a data collection and analysis system (PowerLab®, ADInstruments), and then analyzed using analyzing software (LabChart®, ADInstruments). Test compounds dissolved in 0.5% methylcellulose solution (vehicle) or vehicle only were administered orally immediately before water loading depending on the kinetics of the compound. Based on the total urinary output at 3 hours after administration of the test compound and vehicle groups, the percentage inhibition of urinary output of the test compound group (%) was calculated relative to the urinary output of the vehicle group.

human A549 cells = assay: Inhibition test of PGE2 production using human A549 cells; format: cell-based; details: IL-1β stimulated A549 cells, 24 h, PGE2 by HTRF, read-out: A549 cell inhibition of PGE2 production IC50
Method in brief: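 A549 cells were preincubated 60 min with compound in RPMI/3% FBS (0.1% DMSO final), then stimulated with IL-1β (5 ng/well) for 24 h at 37°C. PGE2 was measured by HTRF and PGF2a by EIA; activity was normalized to stimulated minus unstimulated controls, and IC50 derived.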

Sequence of human mPGES-1 (O14684 whole entry): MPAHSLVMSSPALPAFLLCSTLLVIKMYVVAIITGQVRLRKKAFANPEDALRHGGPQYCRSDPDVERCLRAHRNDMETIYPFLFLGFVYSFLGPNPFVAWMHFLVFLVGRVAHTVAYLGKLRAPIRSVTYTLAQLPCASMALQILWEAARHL

SMILES | IC50 (human mPGES-1) [nM] | IC50 (human A549 cells) [nM] | inhibition at 0.01 µM (human mPGES-1) [%] | inhibition at 0.1 µM (human mPGES-1) [%] | Suppression (%) of urinary output [1] [%]
Cc1ccc(-n2ncc3c(NC(=O)c4cc(CNC(=O)C(C)(C)C)ccc4Cl)cccc32)nn1 [Example 59, 2-Chloro-5-{[(2,2-dimethylpropanoyl)amino]methyl}-N-[1-(6-methylpyridazin-3-yl)-1H-indazol-4-yl]benzamide] | 34.2 | 24.4 | – | – | 21.2
Cc1ccc(-n2ncc3c(NC(=O)c4cc(CNC(=O)C(C)(C)C)ccc4C(F)(F)F)cccc32)cn1.Cl [Example 88, 5-{[(2,2-Dimethylpropanoyl)amino]methyl}-N-[1-(6-methylpyridin-3-yl)-1H-indazol-4-yl]-2-(trifluoromethyl)benzamide hydrochloride] | 1.5 | 68.2 | – | – | 34.5
CC(C)(CO)C(=O)NCc1ccc(Cl)c(C(=O)Nc2cccc3c2cnn3-c2cccc(OC(F)(F)F)c2)c1 [Example 125, 2-Chloro-5-{[(3-hydroxy-2,2-dimethylpropanoyl)amino]methyl}-N-{1-[3-(trifluoromethoxy)phenyl]-1H-indazol-4-yl}benzamide] | – | 3.5 | 62 | – | 58.0
Cc1ccc(-n2ncc3c(NC(=O)c4cc(CNC(=O)C5(O)CC5)ccc4Cl)cccc32)cc1C(F)(F)F [Example 257, 2-Chloro-5-({[(1-hydroxycyclopropyl)carbonyl]amino}methyl)-N-{1-[4-methyl-3-(trifluoromethyl)phenyl]-1H-indazol-4-yl}benzamide] | – | 4.3 | 94 | 96 | –
Cc1ccc(-n2ncc3c(NC(=O)c4cc(CNC(=O)C(C)(C)CO)ccc4Cl)cccc32)cc1C(F)(F)F [Example 259, 2-Chloro-5-{[(3-hydroxy-2,2-dimethylpropanoyl)amino]methyl}-N-{1-[4-methyl-3-(trifluoromethyl)phenyl]-1H-indazol-4-yl}benzamide] | – | 0.5 | 92 | 92 | –
COc1ccc(-n2ncc3c(NC(=O)c4cc(CNC(=O)CC(C)(C)C)ccc4Cl)cccc32)cc1C(F)(F)F [Example 261, 2-Chloro-5-{[(3,3-dimethylbutanoyl)amino]methyl}-N-{1-[4-methoxy-3-(trifluoromethyl)phenyl]-1H-indazol-4-yl}benzamide] | – | 1.4 | 95 | 100 | –
COc1ccc(-n2ncc3c(NC(=O)c4cc(CNC(=O)C5(C(F)(F)F)CC5)ccc4Cl)cccc32)cc1C(F)(F)F [Example 263, 2-Chloro-N-{1-[4-methoxy-3-(trifluoromethyl)phenyl]-1H-indazol-4-yl}-5-[({[1-(trifluoromethyl)cyclopropyl]carbonyl}amino)methyl]benzamide] | – | 0.3 | 89 | 85 | –
Cc1cc(-n2ncc3c(NC(=O)c4cc(CNC(=O)C(C)(C)C)ccc4C(F)(F)F)cccc32)cc(C)n1 [Example 283, 5-{[(2,2-Dimethylpropanoyl)amino]methyl}-N-[1-(2,6-dimethylpyridin-4-yl)-1H-indazol-4-yl]-2-(trifluoromethyl)benzamide] | – | 1.9 | 72 | 96 | –
CC(C)(C)C(=O)NCc1ccc(Cl)c(C(=O)Nc2cccc3c2cnn3C2CC2)c1 [Example 284, 2-Chloro-5-{[(2,2-dimethylpropanoyl)amino]methyl}-N-(1-cyclopropyl-1H-indazol-4-yl)benzamide] | – | 9.6 | 79 | – | –
CC(C)(C)C(=O)NCc1ccc(C(F)(F)F)c(C(=O)Nc2cccc3c2cnn3C2CC2)c1 [Example 285, 5-{[(2,2-Dimethylpropanoyl)amino]methyl}-N-(1-cyclopropyl-1H-indazol-4-yl)-2-(trifluoromethyl)benzamide] | – | 7.7 | 75 | – | –

The next lines start with results.

IC50 (human mPGES-1) [nM] | IC50 (human A549 cells) [nM] | inhibition at 0.01 µM (human mPGES-1) [%] | inhibition at 0.1 µM (human mPGES-1) [%] | SMILES | Suppression (%) of urinary output [1] [%]
3.8 | 2.1 | – | – | CC(C)(C)C(=O)NCc1ccc(Cl)c(C(=O)Nc2cccc3c2cnn3-c2ccc(C3CC3)nc2)c1.Cl [Example 69, 2-Chloro-N-[1-(6-cyclopropylpyridin-3-yl)-1H-indazol-4-yl]-5-{[(2,2-dimethylpropanoyl)amino]methyl}benzamide hydrochloride] | 57.8
4.3 | 1 | – | – | CC(C)(C)C(=O)NCc1ccc(Cl)c(C(=O)Nc2cccc3c2cnn3-c2ccnc(C3CC3)c2)c1.Cl [Example 70, 2-Chloro-N-[1-(2-cyclopropylpyridin-4-yl)-1H-indazol-4-yl]-5-{[(2,2-dimethylpropanoyl)amino]methyl}benzamide hydrochloride] | 25.1
– | 3.2 | 84 | 100 | COCC(=O)NCc1ccc(Cl)c(C(=O)Nc2cccc3c2cnn3-c2ccc(C)c(C(F)(F)F)c2)c1 [Example 258, 2-Chloro-5-{[(methoxyacetyl)amino]methyl}-N-{l-[4-methyl-3-(trifluoromethyl)phenyl]-1H-indazol-4-yl}benzamide] | –
– | 1 | 89 | 101 | Cc1ccc(-n2ncc3c(NC(=O)c4cc(CNS(=O)(=O)C5CC5)ccc4Cl)cccc32)cc1C(F)(F)F [Example 260, 2-Chloro-5-{[(cyclopropylsulfonyl)amino]methyl}-N-{1-[4-methyl-3-(trifluoromethyl)phenyl]-1H-indazol-4-yl}benzamide] | –
– | 2 | 99 | 94 | COc1ccc(-n2ncc3c(NC(=O)c4cc(CNC(=O)C5CCCC5)ccc4Cl)cccc32)cc1C(F)(F)F [Example 262, 2-Chloro-5-{[(cyclopentylcarbonyl)amino]methyl}-N-{1-[4-methoxy-3-(trifluoromethyl)phenyl]-1H-indazol-4-yl}benzamide] | –
– | 5.1 | 94 | 97 | COc1ccc(-n2ncc3c(NC(=O)c4cc(CNC(=O)C5(O)CC5)ccc4Cl)cccc32)cc1C(F)(F)F [Example 264, 2-Chloro-5-({[(1-hydroxycyclopropyl)carbonyl]amino}methyl)-N-{1-[4-methoxy-3-(trifluoromethyl)phenyl]-1H-indazol-4-yl}benzamide] | –
– | 2.7 | 95 | 100 | COCC(=O)NCc1ccc(Cl)c(C(=O)Nc2cccc3c2cnn3-c2ccc(OC)c(C(F)(F)F)c2)c1 [Example 265, 2-Chloro-5-{[(methoxyacetyl)amino]methyl}-N-{1-[4-methoxy-3-(trifluoromethyl)phenyl]-1H-indazol-4-yl}benzamide] | –
– | 3.5 | 64 | 88 | COc1ccc(-n2ncc3c(NC(=O)c4cc(CNC(=O)C5CCCC5)ccc4Cl)cccc32)cn1 [Example 270, 2-Chloro-5-{[(cyclopentylcarbonyl)amino]methyl}-N-[1-(6-methoxypyridin-3-yl)-1H-indazol-4-yl]benzamide] | –
– | 3 | 50 | 90 | COc1ccc(-n2ncc3c(NC(=O)c4cc(CNC(=O)C5(C(F)(F)F)CC5)ccc4Cl)cccc32)cn1 [Example 271, 2-Chloro-N-[1-(6-methoxypyridin-3-yl)-1H-indazol-4-yl]-5-[({[1-(trifluoromethyl)cyclopropyl]carbonyl}amino)methyl]benzamide] | –
– | 3.9 | 66 | 91 | COc1ccc(-n2ncc3c(NC(=O)c4cc(CNS(=O)(=O)C5CC5)ccc4Cl)cccc32)cn1 [Example 275, 2-Chloro-5-{[(cyclopropylsulfonyl)amino]methyl}-N-[1-(6-methoxypyridin-3-yl)-1H-indazol-4-yl]benzamide] | –
– | 3 | 68 | 94 | COc1ccc(-n2ncc3c(NC(=O)c4cc(CNC(=O)C(C)(C)C)ccc4C(F)(F)F)cccc32)cn1 [Example 276, 5-{[(2,2-Dimethylpropanoyl)amino]methyl}-N-[1-(6-methoxypyridin-3-yl)-1H-indazol-4-yl]-2-(trifluoromethyl)benzamide] | 35.1
– | 3.1 | 72 | 90 | Cc1cc(-n2ncc3c(NC(=O)c4cc(CNC(=O)C5CCCC5)ccc4Cl)cccc32)cc(C)n1 [Example 278, 2-Chloro-5-{[(cyclopentylcarbonyl)amino]methyl}-N-[1-(2,6-dimethylpyridin-4-yl)-1H-indazol-4-yl]benzamide] | –
